Where a name gives a salt, the structure may show the parent alone.
These compounds were tested against Proton Pump (H^+/K^+-ATPase) (Sus scrofa, UniProt P19156) (assay: Inhibitory effects on proton pump (H^+/K^+-ATPase) activity). Settings: hog gastric vesicles; K^+ stimulated H^+/K^+-ATPase activity; 30 minutes at 37° C.
Format: biochemical

Chain of Proton Pump (H^+/K^+-ATPase) (P19156 2-1034 limits assumed): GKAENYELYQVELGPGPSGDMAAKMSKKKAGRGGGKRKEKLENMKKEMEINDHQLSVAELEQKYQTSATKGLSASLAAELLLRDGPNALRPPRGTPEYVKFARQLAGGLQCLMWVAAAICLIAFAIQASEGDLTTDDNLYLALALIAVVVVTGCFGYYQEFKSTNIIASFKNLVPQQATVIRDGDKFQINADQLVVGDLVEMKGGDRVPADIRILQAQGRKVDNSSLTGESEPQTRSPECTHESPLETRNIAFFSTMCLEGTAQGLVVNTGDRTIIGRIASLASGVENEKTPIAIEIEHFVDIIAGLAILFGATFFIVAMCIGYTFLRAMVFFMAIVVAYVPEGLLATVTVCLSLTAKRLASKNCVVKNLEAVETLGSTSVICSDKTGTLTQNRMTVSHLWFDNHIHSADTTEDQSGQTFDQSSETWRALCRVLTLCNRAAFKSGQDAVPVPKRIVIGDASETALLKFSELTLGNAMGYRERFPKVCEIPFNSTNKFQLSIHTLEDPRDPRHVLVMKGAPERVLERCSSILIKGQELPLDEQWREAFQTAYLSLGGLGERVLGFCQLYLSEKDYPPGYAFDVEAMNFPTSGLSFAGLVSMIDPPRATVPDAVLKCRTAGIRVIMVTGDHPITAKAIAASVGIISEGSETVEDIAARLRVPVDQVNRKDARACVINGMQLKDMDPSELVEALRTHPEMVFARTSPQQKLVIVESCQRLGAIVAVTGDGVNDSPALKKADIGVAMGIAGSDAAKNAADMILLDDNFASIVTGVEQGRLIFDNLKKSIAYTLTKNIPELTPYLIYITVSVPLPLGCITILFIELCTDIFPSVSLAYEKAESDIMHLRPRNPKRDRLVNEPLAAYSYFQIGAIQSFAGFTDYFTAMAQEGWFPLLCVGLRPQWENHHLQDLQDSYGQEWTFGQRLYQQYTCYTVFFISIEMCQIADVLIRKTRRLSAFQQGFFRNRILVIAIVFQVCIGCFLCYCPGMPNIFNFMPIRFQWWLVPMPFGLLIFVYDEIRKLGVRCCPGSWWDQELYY
Chain of Proton Pump (H^+/K^+-ATPase) (P18434 whole entry partner): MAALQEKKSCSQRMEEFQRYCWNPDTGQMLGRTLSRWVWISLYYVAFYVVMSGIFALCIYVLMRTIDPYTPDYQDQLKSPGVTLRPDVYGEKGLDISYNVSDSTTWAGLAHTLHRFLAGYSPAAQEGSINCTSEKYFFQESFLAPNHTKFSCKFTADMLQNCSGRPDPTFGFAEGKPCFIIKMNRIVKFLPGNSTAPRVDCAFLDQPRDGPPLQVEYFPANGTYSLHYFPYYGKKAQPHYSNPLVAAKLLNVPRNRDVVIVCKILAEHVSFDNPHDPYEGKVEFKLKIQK

IC50 [nM] | Compound
37 | Cc1cccc(Cn2c(C)c(C)c3cc(C(=O)N4CCN(C)CC4)nc(N4CCc5ccccc5C4)c32)c1 [Example 820, [7-(3,4-dihydro-1H-isoquinolin-2-yl)-2,3-dimethyl-1-(3-methylbenzyl)-1H-pyrrolo[2,3-c]pyridin-5-yl]-(4-methylpiperazin-1-yl)-methanone hydrochloride]
340 | Cc1c(C)n(CC2CC2)c2c(CCc3ccccc3)nccc12 [Example 453, 1-cyclopropylmethyl-2,3-dimethyl-7-phenethyl-1H-pyrrolo[2,3-c]pyridine hydrochloride]
79 | COc1ccc(Cn2c(C)c(C)c3cc(C(=O)N4CCN(C)CC4)nc(N4CCc5ccccc5C4)c32)cc1 [Example 829, [7-(3,4-dihydro-1H-isoquinolin-2-yl)-1-(4-methoxybenzyl)-2,3-dimethyl-1H-pyrrolo[2,3-c]pyridin-5-yl]-(4-methylpiperazin-1-yl)-methanone hydrochloride]
300 | COc1ccc(Cn2c(C)c(C)c3ccnc(N4CCc5cc(F)ccc5C4C)c32)cc1 (stereo not drawn) [Example 566, 6-fluoro-2-[1-(4-methoxybenzyl)-2,3-dimethyl-1H-pyrrolo[2,3-c]pyridin-7-yl]-1-methyl-1,2,3,4-tetrahydroisoquinoline hydrochloride]
4050 | Cc1c(C)n(CC2CC2)c2c(N3CCc4ccccc4C3)nc(C(N)=O)cc12 [Example 754, 1-cyclopropylmethyl-7-(3,4-dihydro-1H-isoquinolin-2-yl)-2,3-dimethyl-1H-pyrrolo[2,3-c]pyridin-5-carboxamide]
340 | CCCn1c(C)c(C)c2ccnc(N(C)Cc3ccc(F)cc3)c21 [Example 150, 7-[N-(4-fluorobenzyl)-N-methyl]amino-2,3-dimethyl-1-propyl-1H-pyrrolo[2,3-c]pyridine hydrochloride]
29 | C=CCn1c(C)c(C)c2cc(C(=O)NCCO)nc(N3CCc4ccccc4C3)c21 [Example 837, 1-allyl-7-(3,4-dihydro-1H-isoquinolin-2-yl)-2,3-dimethyl-N-(2-hydroxyethyl)-1H-pyrrolo[2,3-c]pyridin-5-carboxamide hydrochloride]
80 | Cc1[nH]c2c(NCc3ccccc3)nccc2c1C [Example 175, 7-benzylamino-2,3-dimethyl-1H-pyrrolo[2,3-c]pyridine hydrochloride]
69 | C#CCn1c(C)c(C)c2ccnc(N3CCc4ccccc4C3)c21 [Example 506, 1-(prop-2-ynyl)-7-(1,2,3,4-tetrahydroisoquinolin-2-yl)-2,3-dimethyl-1H-pyrrolo[2,3-c]pyridine hydrochloride]
242 | COc1cccc(Cn2c(C)c(C)c3cc(C(=O)n4ccnc4)nc(N4CCc5ccccc5C4)c32)c1 [Example 841, [7-(3,4-dihydro-1H-isoquinolin-2-yl)-1-(3-methoxybenzyl)-2,3-dimethyl-1H-pyrrolo[2,3-c]pyridin-5-yl]-(imidazol-1-yl)-methanone hydrochloride]
22 | C=CCn1c(C)c(C)c2cc(C(=O)O)nc(N3CCc4ccccc4C3)c21 [Example 732, 1-allyl-7-(3,4-dihydro-1H-isoquinolin-2-yl)-2,3-dimethyl-1H-pyrrolo[2,3-c]pyridin-5-carboxylic acid]
5080 | Cc1ccc(-c2nccc3c(C)c(C)n(Cc4ccc(Cl)c(Cl)c4)c23)cc1 [Example 296, 1-(3,4-dichlorobenzyl)-2,3-dimethyl-7-(p-tolyl)-1H-pyrrolo[2,3-c]pyridine hydrochloride]
846 | Cc1c(C)n(CC2CC2)c2c(COc3ccc(F)cc3F)nccc12 [Example 35, 1-cyclopropylmethyl-7-(2,4-difluorophenoxymethyl)-2,3-dimethyl-1H-pyrrolo[2,3-c]pyridine hydrochloride]
44 | Cc1c(C)n(Cc2ccccc2)c2c(N3CCc4ccccc4C3)nc(C(=O)N3CCOCC3)cc12 [Example 764, [1-benzyl-7-(3,4-dihydro-1H-isoquinolin-2-yl)-2,3-dimethyl-1H-pyrrolo[2,3-c]pyridin-5-yl]-(morpholin-4-yl)-methanone]
350 | CCn1c(C)c(C)c2ccnc(NCc3ccccc3C)c21 [Example 225, 1-ethyl-2,3-dimethyl-7-(2-methylbenzylamino)-1H-pyrrolo[2,3-c]pyridine hydrochloride]
150 | C#CCn1c(C)c(C)c2ccnc(-c3ccc(OC)cc3)c21 [Example 354, 7-(4-methoxyphenyl)-2,3-dimethyl-1-(prop-2-ynyl)-1H-pyrrolo[2,3-c]pyridine hydrochloride]
250 | Cc1c(C)n(Cc2cccc(F)c2)c2c(N3CCc4ccc(Cl)cc4C3C)nccc12 (stereo not drawn) [Example 539, 7-chloro-2-[1-(3-fluorobenzyl)-2,3-dimethyl-1H-pyrrolo[2,3-c]pyridin-7-yl]-1-methyl-1,2,3,4-tetrahydroisoquinoline hydrochloride]
130 | Cc1c(C)n(Cc2ccccc2)c2c(COc3ccc(Cl)cc3)nccc12 [Example 43, 1-benzyl-7-(4-chlorophenoxymethyl)-2,3-dimethyl-1H-pyrrolo[2,3-c]pyridine hydrochloride]
270 | Cc1c(C)n(CC2OCCO2)c2c(N(C)Cc3ccc(F)cc3)nccc12 [Example 158, 1-(1,3-dioxolan-2-ylmethyl)-7-[N-(4-fluorobenzyl)-N-methyl]amino-2,3-dimethyl-1H-pyrrolo[2,3-c]pyridine hydrochloride]
110 | C=Cc1ccc(-c2nccc3c(C)c(C)n(Cc4ccccc4)c23)cc1 [Example 246, 1-benzyl-2,3-dimethyl-7-(4-vinylphenyl)-1H-pyrrolo[2,3-c]pyridine hydrochloride]
99 | Cc1[nH]c2c(-c3ccc4ccccc4c3)nccc2c1C [Example 410, 2,3-dimethyl-7-(naphthalen-2-yl)-1H-pyrrolo[2,3-c]pyridine sodium]
124 | Cc1c(C)n(Cc2cccnc2)c2c(N3CCc4ccccc4C3)nccc12 [Example 516, 1-(pyridin-3-ylmethyl)-7-(1,2,3,4-tetrahydroisoquinolin-2-yl)-2,3-dimethyl-1H-pyrrolo[2,3-c]pyridine hydrochloride]
210 | COc1ccc(-c2nccc3c(C)c(C)n(Cc4ccccc4)c23)cc1 [Example 350, 1-benzyl-7-(4-methoxyphenyl)-2,3-dimethyl-1H-pyrrolo[2,3-c]pyridine hydrochloride]
120 | C=CCn1c(C)c(C)c2ccnc(N3CCc4ccccc4C3C3CC3)c21 (stereo not drawn) [Example 570, 2-(1-allyl-2,3-dimethyl-1H-pyrrolo[2,3-c]pyridin-7-yl)-1-cyclopropyl-1,2,3,4-tetrahydroisoquinoline hydrochloride]
380 | CCC1c2ccccc2CCN1c1nccc2c(C)c(C)n(Cc3ccc(OC)cc3)c12 (stereo not drawn) [Example 583, 1-ethyl-2-[1-(4-methoxybenzyl)-2,3-dimethyl-1H-pyrrolo[2,3-c]pyridin-7-yl]-1,2,3,4-tetrahydroisoquinoline hydrochloride]

Compound | IC50 [nM]
C=CCn1c(C)c(C)c2ccnc(N3CCc4ccccc4C3)c21 [Example 490, 1-allyl-7-(1,2,3,4-tetrahydroisoquinolin-2-yl)-2,3-dimethyl-1H-pyrrolo[2,3-c]pyridine nitrate] | 3
[1-allyl-7-(3,4-dihydro-1H-isoquinolin-2-yl)-2,3-dimethyl-1H-pyrrolo[2,3-c]pyridin-5-yl]-methylamine hydrochloride [Example 887] | 9

Reference: patent US7662832B2, “Pyrrolo[2,3-c]pyridine derivatives and processes for the preparation thereof” (priority 2004, dated 2010)
